# Results published in ChEMBL document CHEMBL5614395 (Eur J Med Chem, 2024).
# Assay: in vitro
# Conditions: human, Caco-2
row,Structure (SMILES),Papp A→B [×10⁻⁶ cm/s]
1,COc1cc(-n2ncc3c(-c4cccc(-c5ccc(CN[C@H]6C[C@@H](O)C6)c(OC)n5)c4Cl)cccc32)cc(OC)c1CN(C)C12CCC(C(=O)O)(CC1)CC2,0.4
2,COc1cc(-n2ncc3c(-c4cccc(-c5ccc(CN[C@H]6C[C@@H](O)C6)c(OC)n5)c4Cl)cccc32)cc(OC)c1CN1CC(C(=O)O)C1,0.1
3,COc1cc(-n2ncc3c(-c4cccc(-c5ccc(CN(C)C67CCC(C(=O)O)(CC6)CC7)c(OC)n5)c4Cl)cccc32)cc(OC)c1CN(C)[C@H]1C[C@H](O)C1,3
